# Tested on: ALK-positive or ROS1-positive advanced non-small cell lung cancer
# Assay: Phase I clinical trial, dose escalation and expansion phases: efficacy (RECIST 1.1)
# Type: in vivo, human
# Method: The anti-tumor efficacy is evaluated according to RECIST version 1.1. For patients initially evaluated as having a complete response (CR) or partial response (PR), efficacy should be confirmed at least 4 weeks later. In the patients with asymptomatic central nervous system (CNS) metastases, in addition to evaluating 5 extracranial target lesions, up to 5 intracranial target lesions will also be evaluated. The specific indicators are as follows:
# "CR" is defined as the disappearance of all target lesions, and the diameters of the short axis of all the pathological lymph nodes (whether target or non-target lymph nodes) must be reduced to 10 mm or less.
# "PR" is defined as a reduction of at least 30% in the total diameter of the target lesions, with the total diameter of the baseline as a reference value.
# "PD" is defined as an increase of at least 20% in the total diameter of the target lesions, using the minimum total diameter in the study as a reference value (this value may include the total diameter of the baseline). In addition, the absolute value of the total diameter must increase by at least 5 mm (the appearance of one or more new lesions is also considered as progressive disease).
# "SD" is defined as a state in which the reduction in target lesions is insufficient to achieve partial response and the increase is insufficient to achieve progressive disease.
# "ORR" includes CR and PR, and is defined as the proportion of patients who achieve complete response or partial response.
# "IC-ORR" includes CR or PR for confirmed intracranial lesions, and is defined as the proportion of the patients with complete response or partial response of intracranial lesions among the patients with intracranial lesions.
# "DCR" is defined as the proportion of the patients who achieve response (PR+CR) and stable disease (SD) after a treatment.
# "IC-DCR" is defined as the proportion of the patients who achieve intracranial response (PR+CR), intracranial stable disease (SD), and […] after a treatment among the patients with intracranial lesions.
# "DOR" is defined as the time from the first assessment of CR or PR to progressive disease or death, and is only applicable to the patients who achieve response.
# "IC-DOR" is defined as the time from the first assessment of intracranial CR or intracranial PR to progressive disease or death, and is only applicable to the patients whose intracranial lesions achieve response.
# "TTR" is defined as the time from patient enrollment (first dose of investigational drug) to tumor response (CR/PR), based on the patients with objective response.
# "IC-TTR" is defined as the time from patient enrollment (first dose of investigational drug) to intracranial tumor response (IC-CR/PR), based on the patients with intracranial objective response.
# Approximately eight dose groups in total were set in the dose escalation phase, which were 5 (the starting dose), 10, 20, 40, 60, 80, 100, and 125 mg, respectively. Subjects in all the dose groups received a single dose on day 1 (D1), and the blood samples were collected for pharmacokinetic (PK) assay and tolerability observation. If no grade 2 or a higher-level adverse event related to the investigational drug occurred during the single-dose period (5 to 7 days) (if such events occurred, dose adjustments would be made based on the toxicity according to the protocol), the subject entered the multiple-dose period (i.e., treatment period) 5 to 7 days later (7 days after the first administration in the first dose group (i.e., starting the multiple-dose treatment on day 8), and the intervals for the subsequent dose groups were determined based on the obtained tolerability and PK data). […]
structure (smiles),measurement,setting,value
"[2H]C([2H])([2H])n1nc2c(c1C#N)-c1cnc(N)c(c1)O[C@H](C)c1cc(F)ccc1C(=O)N(C)C2 [compound A, (10R)-7-amino-12-fluoro-2-(methyl-d3)-10,16-dimethyl-15-oxo-10,15,16,17-tetrahydro-2H-8,4-(metheno)pyrazolo[4,3-h][2,5,11]benzoxadiazacyclotetradecine-3-carbonitrile]",BOR CR,"intracranial, 10mg (N=1)",0 n (%)
same,BOR NE,"intracranial, 10mg (N=1)",0 n (%)
same,BOR PD,"intracranial, 10mg (N=1)",0 n (%)
same,BOR PR,"intracranial, 10mg (N=1)",1 (100) n (%)
same,BOR SD,"intracranial, 10mg (N=1)",0 n (%)
same,Confirmed IC-ORR (95% CI),"intracranial, 10mg (N=1)","1 (100) (2.5, 100.0) n (%)"
same,IC-DCR (95% CI),"intracranial, 10mg (N=1)","1 (100) (2.5, 100.0) n (%)"
same,Median IC-DOR (95% CI),"intracranial, 10mg (N=1)","5.55 (-, -) months"
same,Median IC-TTR (range),"intracranial, 10mg (N=1)","1.35 (1.35, 1.35) months"
same,BOR CR,"intracranial, 20mg (N=1)",0 n (%)
same,BOR NE,"intracranial, 20mg (N=1)",0 n (%)
same,BOR PD,"intracranial, 20mg (N=1)",0 n (%)
same,BOR PR,"intracranial, 20mg (N=1)",1 (100) n (%)
same,BOR SD,"intracranial, 20mg (N=1)",0 n (%)
same,Confirmed IC-ORR (95% CI),"intracranial, 20mg (N=1)","1 (100) (2.5, 100.0) n (%)"
same,IC-DCR (95% CI),"intracranial, 20mg (N=1)","1 (100) (2.5, 100.0) n (%)"
same,Median IC-TTR (range),"intracranial, 20mg (N=1)","1.35 (1.35, 1.35) months"
same,BOR CR,"intracranial, 40mg (N=4)",0 n (%)
same,BOR NE,"intracranial, 40mg (N=4)",1 (25.0) n (%)
same,BOR PD,"intracranial, 40mg (N=4)",0 n (%)
same,BOR PR,"intracranial, 40mg (N=4)",0 n (%)
same,BOR SD,"intracranial, 40mg (N=4)",3 (75.0) n (%)
same,Confirmed IC-ORR (95% CI),"intracranial, 40mg (N=4)","0 (0.0, 60.2) n (%)"
same,IC-DCR (95% CI),"intracranial, 40mg (N=4)","3 (75.0) (19.4, 99.4) n (%)"
same,BOR CR,"intracranial, 60mg (N=2)",0 n (%)
same,BOR NE,"intracranial, 60mg (N=2)",0 n (%)
same,BOR PD,"intracranial, 60mg (N=2)",0 n (%)
same,BOR PR,"intracranial, 60mg (N=2)",2 (100) n (%)
same,BOR SD,"intracranial, 60mg (N=2)",0 n (%)
same,Confirmed IC-ORR (95% CI),"intracranial, 60mg (N=2)","2 (100) (15.8, 100.0) n (%)"
same,IC-DCR (95% CI),"intracranial, 60mg (N=2)","2 (100) (15.8, 100.0) n (%)"
same,Median IC-DOR (95% CI),"intracranial, 60mg (N=2)","17.97 (-, -) months"
same,Median IC-TTR (range),"intracranial, 60mg (N=2)","4.11 (1.35, 6.87) months"
same,BOR CR,"intracranial, 80mg (N=4)",0 n (%)
same,BOR NE,"intracranial, 80mg (N=4)",1 (25.0) n (%)
same,BOR PD,"intracranial, 80mg (N=4)",0 n (%)
same,BOR PR,"intracranial, 80mg (N=4)",1 (25.0) n (%)
same,BOR SD,"intracranial, 80mg (N=4)",2 (50.0) n (%)
same,Confirmed IC-ORR (95% CI),"intracranial, 80mg (N=4)","1 (25.0) (0.6, 80.6) n (%)"
same,IC-DCR (95% CI),"intracranial, 80mg (N=4)","3 (75.0) (19.4, 99.4) n (%)"
same,Median IC-TTR (range),"intracranial, 80mg (N=4)","1.51 (1.51, 1.51) months"
same,BOR CR,"intracranial, 100mg (N=2)",0 n (%)
same,BOR NE,"intracranial, 100mg (N=2)",0 n (%)
same,BOR PD,"intracranial, 100mg (N=2)",0 n (%)
same,BOR PR,"intracranial, 100mg (N=2)",0 n (%)
same,BOR SD,"intracranial, 100mg (N=2)",2 (100) n (%)
same,Confirmed IC-ORR (95% CI),"intracranial, 100mg (N=2)","0 (0.0, 84.2) n (%)"
same,IC-DCR (95% CI),"intracranial, 100mg (N=2)","2 (100) (15.8, 100.0) n (%)"
same,BOR CR,"intracranial, 125mg (N=1)",0 n (%)
same,BOR NE,"intracranial, 125mg (N=1)",0 n (%)
same,BOR PD,"intracranial, 125mg (N=1)",0 n (%)
same,BOR PR,"intracranial, 125mg (N=1)",0 n (%)
same,BOR SD,"intracranial, 125mg (N=1)",1 (100) n (%)
same,Confirmed IC-ORR (95% CI),"intracranial, 125mg (N=1)","0 (0.0, 97.5) n (%)"
same,IC-DCR (95% CI),"intracranial, 125mg (N=1)","1 (100) (2.5,100.0) n (%)"
same,BOR CR,"systemic, 5mg (N=1)",0 n (%)
same,BOR NE,"systemic, 5mg (N=1)",0 n (%)
same,BOR PD,"systemic, 5mg (N=1)",0 n (%)
same,BOR PR,"systemic, 5mg (N=1)",0 n (%)
same,BOR SD,"systemic, 5mg (N=1)",1 (100) n (%)
same,Confirmed ORR (95% CI),"systemic, 5mg (N=1)","0 (0.0, 97.5) n (%)"
